From patent US20060020004A1, “Isoxazolidine compounds for treatment of bacterial infections” (Infinity Pharmaceuticals, Inc., priority 2004, published 2006)
Converted amounts (≈) assume the structure as drawn.

Assays:
[1] = tested on: Methicillin resistant S. aureus ATCC 33591; experiment: MIC determination, MRSA; type: cell-based, Staphylococcus aureus; settings: MRSA ATCC 33591, 24 h; for MIC: Staphylococcus aureus
Procedure: (§1) Susceptibility testing for bacterial cultures is performed according to the National Council for Clinical Laboratory Standards (NCCLS) protocol M100-S12, “Performance Standards for Antimicrobial Susceptibility Testing.” The bacterial strains recommended by NCCLS were obtained from the American Type Culutre Collection (ATCC) (Table) and were maintained on Mueller Hinton (MHA) agar plates plus or minus 3% lysed horse blood (see Table). The bacteria were grown in Cation adjusted Mueller Hinton Broth (CaMHB) for liquid growth and susceptibility testing. S. cerevisiae (yeast) is grown in yeast peptone dextrose (YPD) media.
(§2) All bacterial cultures were grown at 37 degrees Celsius. Fresh colonies of S. aureus and MRSA were inoculated into liquid media and grown overnight and diluted the next day to grow to mid-log (Table 2). E. faecalis and S. pneumonia mid-log cultures were started directly from colony on plates. To attain mid-log growth, cultures were grown to an optical density (OD) at A590 of 0.2-0.8 (see Table 2) and then diluted to proper OD to obtain 5×10^5 cells/mL.
(§3) Diluted bacterial cultures are added to compound plates with compound diluted 2-fold from 100 μg/mL to 0.2 μg/mL final concentration in DMSO. Control antibiotics are also added: vancomycin, linezolid, and penicillin. In 384 well plates, 0.5 μL compound is added followed by addition of 50 μL of culture. DMSO alone is included as a control. Plates incubated at 37 degrees Celsius for 17-24 h.
(§4) Plates with cells mixed with compounds are incubated for 17 h for S. aureus and yeast, 24 h for MRSA, and all Enterococcus and Streptococcus strains. Yeast plates are incubated […].
(§5) Viability is determined by reading plates at A590 to determine optical density of treated and untreated cells and determining growth inhibition relative to controls.

[2] = tested on: Staphylococcus aureus (Smith) ATCC 19636; experiment: MIC determination, S. aureus; type: cell-based; settings: S. aureus ATCC 19636, 17 h; for MIC: Staphylococcus aureus, ATCC19636
Procedure: as §1, §2, §3, §4, §5

[3] = tested on: Penicillin-res. S. pneumonia ATCC 700671; experiment: MIC determination, PRSP; type: cell-based, Streptococcus pneumonia; settings: ATCC 700671, 24 h; for MIC: Streptococcus pneumoniae
Procedure: as §1, §2, §3, §4, §5

MIC [1] [µg/mL] | MIC [2] [µg/mL] | MIC [3] [µg/mL] | SMILES | MIC MRSA [1] | MIC S. aureus [2] | MIC PRSP [3]
5 to 90 (≈ 9.3 to 167 µM) | 5 to 90 (≈ 9.3 to 167 µM) | 5 to 90 (≈ 9.3 to 167 µM) | Cc1ccc(C#Cc2ccc(CC3O[C@H]([C@@H](C)O)[C@H](CO)[C@@H]3C(=O)NCCc3nc4ccccc4[nH]3)cc2)cc1 (some centres unmarked) |  |  | 
5 to 90 (≈ 11.2 to 202 µM) | 5 to 90 (≈ 11.2 to 202 µM) |  | CCCCCCCCN1O[C@@H]([C@H](C)O)[C@@H](CO)[C@H]1C(=O)NCCc1c[nH]c2ccccc12 |  |  | 
 |  |  | CC(O)C1ON(Cc2ccc(-c3ccc(Cl)cc3)cc2)C(C(=O)NCCc2c[nH]c3ccccc23)C1CO (centres unmarked) | ** (the MIC is 5-90 μg/mL) | ** (the MIC is 5-90 μg/mL) | ** (the MIC is 5-90 μg/mL)
 |  |  | CC(O)C1ON(CCCCCCCCc2ccccc2)C(C(=O)NCCc2c[nH]c3ccccc23)C1CO (centres unmarked) | ** (the MIC is 5-90 μg/mL) |  | ** (the MIC is 5-90 μg/mL)
 |  |  | COc1ccc2[nH]cc(CCNC(=O)C3C(CO)C(C(C)O)ON3Cc3ccc(C#Cc4ccc(C)cc4)cc3)c2c1 (centres unmarked) | * (the MIC is >90 μg/mL) | ** (the MIC is 5-90 μg/mL) | ** (the MIC is 5-90 μg/mL)
< 5 | < 5 |  | CCCCCCCCCCCCN1O[C@@H]([C@H](C)O)[C@@H](CO)[C@H]1C(=O)NCCc1c[nH]c2ccccc12 |  |  | 
 |  |  | Cc1ccc(C#Cc2ccc(CN3OCC(CO)C3C(=O)NCCc3c[nH]c4ccccc34)cc2)cc1 (centres unmarked) [drawing 221] | ** (the MIC is 5-90 μg/mL) | ** (the MIC is 5-90 μg/mL) | ** (the MIC is 5-90 μg/mL)
5 to 90 | 5 to 90 | 5 to 90 | Cc1ccc(C#Cc2ccc(CN3O[C@@H]([C@@H](C)O)[C@@H](CN(C)C)[C@@H]3C(=O)NCCc3c[nH]c4ccccc34)cc2)cc1.Cl |  |  | 
5 to 90 (≈ 9.6 to 173 µM) | 5 to 90 (≈ 9.6 to 173 µM) | 5 to 90 (≈ 9.6 to 173 µM) | Cc1ccc(C#Cc2ccc(CN3OC[C@H](CN(C)C)[C@H]3C(=O)NCCc3c[nH]c4ccccc34)cc2)cc1 |  |  | 
 |  |  | CC(O)C1ON(Cc2ccc(-c3ccc(C(C)(C)C)cc3)cc2)C(C(=O)NCCc2c[nH]c3ccccc23)C1CO (centres unmarked) | * (the MIC is >90 μg/mL) | ** (the MIC is 5-90 μg/mL) | ** (the MIC is 5-90 μg/mL)
 |  |  | Cc1ccc(C#Cc2ccc(CN3OC(C(C)O)C(CO)C3CNCCc3c[nH]c4ccccc34)cc2)cc1 (centres unmarked) | ** (the MIC is 5-90 μg/mL) | ** (the MIC is 5-90 μg/mL) | * (the MIC is >90 μg/mL)
 |  |  | CCCCCCN1O[C@@H]([C@H](C)O)[C@@H](CO)[C@H]1C(=O)NCCc1c[nH]c2ccccc12 | * (the MIC is >90 μg/mL) | * (the MIC is >90 μg/mL) | * (the MIC is >90 μg/mL)
 |  |  | CC(O)C1ON(CCCCCCc2ccccc2)C(C(=O)NCCc2c[nH]c3ccccc23)C1CO (centres unmarked) | ** (the MIC is 5-90 μg/mL) | ** (the MIC is 5-90 μg/mL) | ** (the MIC is 5-90 μg/mL)
5 to 90 (≈ 10.1 to 182 µM) | 5 to 90 (≈ 10.1 to 182 µM) | 5 to 90 (≈ 10.1 to 182 µM) | Cc1ccc(C#Cc2ccc(CN3OC(CO)CC3C(=O)NCCc3c[nH]c4ccccc34)cc2)cc1 (centres unmarked) |  |  | 
 |  |  | CC(O)C1ON(Cc2ccc(Oc3ccccc3)cc2)C(C(=O)NCCc2c[nH]c3ccccc23)C1CO (centres unmarked) | ** (the MIC is 5-90 μg/mL) | ** (the MIC is 5-90 μg/mL) | ** (the MIC is 5-90 μg/mL)
 |  |  | Cc1ccc(C#Cc2ccc(CN3OCC(CO)C3C(=O)NCCc3c[nH]c4ccccc34)cc2)cc1 (centres unmarked) [drawing 212] | *** (the MIC is less than 5 μg/mL) |  | ** (the MIC is 5-90 μg/mL)
 |  |  | CC(O)C1ON(Cc2cccc(-c3ccc(Cl)cc3)c2)C(C(=O)NCCc2c[nH]c3ccccc23)C1CO (centres unmarked) | ** (the MIC is 5-90 μg/mL) | ** (the MIC is 5-90 μg/mL) | ** (the MIC is 5-90 μg/mL)
 |  |  | CC(O)C1ON(Cc2ccc(-c3ccc(Oc4ccccc4)cc3)cc2)C(C(=O)NCCc2c[nH]c3ccccc23)C1CO (centres unmarked) | ** (the MIC is 5-90 μg/mL) | ** (the MIC is 5-90 μg/mL) | ** (the MIC is 5-90 μg/mL)
 |  |  | CC(O)C1ON(Cc2ccc(-c3cc4ccccc4o3)cc2)C(C(=O)NCCc2c[nH]c3ccccc23)C1CO (centres unmarked) | ** (the MIC is 5-90 μg/mL) | ** (the MIC is 5-90 μg/mL) | ** (the MIC is 5-90 μg/mL)
